Assay results reported in patent US3950351A, “New derivatives of 2-benzamido-5-nitro thiazoles” (S.P.R.L. Phavic, priority 1973, dated 1976).

Columns and labels:
Hymenolepis nana [1] = assay: Test for anthelminthics, cestodes (R. CAVIER; R. CAVIER and M. J. NOTTEGHEM); type: in vivo; set-up: Hymenolepis nana: (4) percentage of activity: concentration or dose not given beside the values; details: Table II; 10 subjects
From the text: (§1) Biological tests have been performed with a great number of compounds of formula I, using the following techniques: 1)- Test for amoebicidal activity described by R. CAVIER, Ann. pharm. franc. 1960, 18, pages 583-589 and by R. CAVIER and J. CENAC, Bull. Soc. Path. exot. 1972, 65, pages 399-404. 2) - Test for trichomonacidal activity described by R. Cavier and P. BUOT, Ann. Pharm. franc., 1964, 22, pages 211-216 and by R. CAVIER and J. CENAC, Semaine des Hopitaux, 1972, 48, pages 391-394. 3)- Tests for anthelminthics described for nematodes (such as Syphacia obvelata) by R. CAVIER, Bull. Soc. Path. exot. 1962, 55, pages 412-417, and for cestodes (such as Hymenolepis nana), by R. CAVIER, Ann. pharm. franc. 1956, 14, pages 545-552 and by R. CAVIER and M. J. NOTTEGHEM, Ann. Pharm. franc., 1968, 28, pages 603-606.

Syphacia obvelata = assay: Test for anthelminthics, nematodes (R. CAVIER); type: in vivo; set-up: Syphacia: (4) percentage of activity: concentration or dose not given beside the values; details: Table II; 10 subjects
From the text: as §1

Biomphalaria glabrata = assay: Molluscicidal activity test; type: in vivo; details: 24 h exposure at 26°C, observed again after 24 h, 10, 1 and 0.1 ppm tested, read-out: dose at which active against Biomphalaria glabrata
Protocol: For determining the molluscicidal activity, the following test is used:
Two to four weeks old molluscs are used. Five molluscs having the same size are put in the same container and covered with a testing solution at a temperature of 26°C during 24 hours. After rinsing, the animals are again observed after 24 hours. The total duration of this test therefore is 48 hours.
Testing solutions containing respectively 10, 1 and 0.1 parts per million of the compounds to be tested in water having a hardness of 10° (hydrotimetric) are used.
The sensitivity of the mollusc strain is standardized with known reference molluscicides such as Niclosamide (Registered Trademark).

Hymenolepis nana [2] = assay: Tests on Hymenolepis nana in mice, anthelminthic activity, single dose (technique of R. CAVIER); type: in vivo; set-up: Mortality: unit not given here
From the text: Tests on Hymenolepis nana in mice have also been performed in order to determine the anthelminthic activity of various cmpounds of formula I, according to the technique of R. CAVIER. […] Four hours later, the animals have been purged by means of sodium sulfate.

Acute toxicity in mice = details: mouse, in vivo
From the text: Toxicity investigations have shown that the compounds of formula I have a very low acute toxicity both on oral administration and on intraperitoneal administration to mice.

CC(=O)Oc1ccc(OC(C)=O)c(C(=O)Nc2ncc([N+](=O)[O-])s2)c1 [PH 6056]
Hymenolepis nana: (2) number of dead subjects (Hymenolepis nana [1]): 0
Hymenolepis nana: (3) number of subjects from which the parasite has been eradicated (Hymenolepis nana [1]): 6
Hymenolepis nana: (4) percentage of activity (Hymenolepis nana [1]): 60%
Syphacia: (2) number of dead subjects (Syphacia obvelata): 0
Syphacia: (3) number of subjects from which the parasite has been eradicated (Syphacia obvelata): 1
Syphacia: (4) percentage of activity (Syphacia obvelata): 10%

CC(=O)Oc1ccc(C(=O)Nc2ncc([N+](=O)[O-])s2)cc1OC(C)=O [PH 6162]
Hymenolepis nana: (2) number of dead subjects (Hymenolepis nana [1]): 0
Hymenolepis nana: (3) number of subjects from which the parasite has been eradicated (Hymenolepis nana [1]): 1
Hymenolepis nana: (4) percentage of activity (Hymenolepis nana [1]): 10%
Syphacia: (2) number of dead subjects (Syphacia obvelata): 0
Syphacia: (3) number of subjects from which the parasite has been eradicated (Syphacia obvelata): 2
Syphacia: (4) percentage of activity (Syphacia obvelata): 20%

CC(=O)Oc1cc(OC(C)=O)cc(C(=O)Nc2ncc([N+](=O)[O-])s2)c1 [PH 6161]
Hymenolepis nana: (2) number of dead subjects (Hymenolepis nana [1]): 0
Hymenolepis nana: (3) number of subjects from which the parasite has been eradicated (Hymenolepis nana [1]): 0
Hymenolepis nana: (4) percentage of activity (Hymenolepis nana [1]): 0%
Syphacia: (2) number of dead subjects (Syphacia obvelata): 0
Syphacia: (3) number of subjects from which the parasite has been eradicated (Syphacia obvelata): 7
Syphacia: (4) percentage of activity (Syphacia obvelata): 70%

CC(=O)Oc1ccc(Br)cc1C(=O)Nc1ncc([N+](=O)[O-])s1 [PH 6103]
Hymenolepis nana: (2) number of dead subjects (Hymenolepis nana [1]): 0
Hymenolepis nana: (3) number of subjects from which the parasite has been eradicated (Hymenolepis nana [1]): 4
Hymenolepis nana: (4) percentage of activity (Hymenolepis nana [1]): 40%
minimal effective concentration (Biomphalaria glabrata): 1 µg/mL
Syphacia: (2) number of dead subjects (Syphacia obvelata): 0
Syphacia: (3) number of subjects from which the parasite has been eradicated (Syphacia obvelata): 2
Syphacia: (4) percentage of activity (Syphacia obvelata): 20%

CC(=O)Oc1cc(C(=O)Nc2ncc([N+](=O)[O-])s2)cc(OC(C)=O)c1OC(C)=O [PH 6177]
Hymenolepis nana: (2) number of dead subjects (Hymenolepis nana [1]): 0
Hymenolepis nana: (3) number of subjects from which the parasite has been eradicated (Hymenolepis nana [1]): 0
Hymenolepis nana: (4) percentage of activity (Hymenolepis nana [1]): 0%
Syphacia: (2) number of dead subjects (Syphacia obvelata): 0
Syphacia: (3) number of subjects from which the parasite has been eradicated (Syphacia obvelata): 0
Syphacia: (4) percentage of activity (Syphacia obvelata): 0%

CCC(=O)Oc1ccccc1C(=O)Nc1ncc([N+](=O)[O-])s1 [PH 6049]
Hymenolepis nana: (2) number of dead subjects (Hymenolepis nana [1]): 0
Hymenolepis nana: (3) number of subjects from which the parasite has been eradicated (Hymenolepis nana [1]): 10
Hymenolepis nana: (4) percentage of activity (Hymenolepis nana [1]): 100%
minimal effective concentration (Biomphalaria glabrata): 1 µg/mL
Mice from which parasite has been eradicated, number (Hymenolepis nana [2]; 25 mg/kg): 8
Mice from which parasite has been eradicated, percentage (Hymenolepis nana [2]; 25 mg/kg): 40%
Mortality (Hymenolepis nana [2]; 25 mg/kg): 0
Mice from which parasite has been eradicated, number (Hymenolepis nana [2]; 50 mg/kg): 14
Mice from which parasite has been eradicated, percentage (Hymenolepis nana [2]; 50 mg/kg): 70%
Mortality (Hymenolepis nana [2]; 50 mg/kg): 0
Mice from which parasite has been eradicated, number (Hymenolepis nana [2]; 100 mg/kg): 18
Mice from which parasite has been eradicated, percentage (Hymenolepis nana [2]; 100 mg/kg): 90%
Mortality (Hymenolepis nana [2]; 100 mg/kg): 0
Mice from which parasite has been eradicated, number (Hymenolepis nana [2]; 200 mg/kg): 20
Mice from which parasite has been eradicated, percentage (Hymenolepis nana [2]; 200 mg/kg): 100%
Mortality (Hymenolepis nana [2]; 200 mg/kg): 0
Syphacia: (2) number of dead subjects (Syphacia obvelata): 0
Syphacia: (3) number of subjects from which the parasite has been eradicated (Syphacia obvelata): 2
Syphacia: (4) percentage of activity (Syphacia obvelata): 20%

CC(=O)Oc1ccccc1C(=O)Nc1ncc([N+](=O)[O-])s1 [PH 5776]
Hymenolepis nana: (2) number of dead subjects (Hymenolepis nana [1]): 0
Hymenolepis nana: (3) number of subjects from which the parasite has been eradicated (Hymenolepis nana [1]): 10
Hymenolepis nana: (4) percentage of activity (Hymenolepis nana [1]): 100%
minimal effective concentration (Biomphalaria glabrata): 1 µg/mL
Mice from which parasite has been eradicated, number (Hymenolepis nana [2]; 25 mg/kg): 20
Mice from which parasite has been eradicated, percentage (Hymenolepis nana [2]; 25 mg/kg): 100%
Mortality (Hymenolepis nana [2]; 25 mg/kg): 0
Mice from which parasite has been eradicated, number (Hymenolepis nana [2]; 50 mg/kg): 30
Mice from which parasite has been eradicated, percentage (Hymenolepis nana [2]; 50 mg/kg): 100%
Mortality (Hymenolepis nana [2]; 50 mg/kg): 0
Mice from which parasite has been eradicated, number (Hymenolepis nana [2]; 100 mg/kg): 10
Mice from which parasite has been eradicated, percentage (Hymenolepis nana [2]; 100 mg/kg): 100%
Mortality (Hymenolepis nana [2]; 100 mg/kg): 0
Mice from which parasite has been eradicated, number (Hymenolepis nana [2]; 200 mg/kg): 10
Mice from which parasite has been eradicated, percentage (Hymenolepis nana [2]; 200 mg/kg): 100%
Mortality (Hymenolepis nana [2]; 200 mg/kg): 0
LD50 (Acute toxicity in mice; ip, intraperitoneal administration): > 95 mg/kg
LD50 (Acute toxicity in mice; oral administration): > 4000 mg/kg
Syphacia: (2) number of dead subjects (Syphacia obvelata): 0
Syphacia: (3) number of subjects from which the parasite has been eradicated (Syphacia obvelata): 6
Syphacia: (4) percentage of activity (Syphacia obvelata): 60%

CC(=O)Oc1ccc(C(=O)Nc2ncc([N+](=O)[O-])s2)c(OC(C)=O)c1 [PH 6058]
Hymenolepis nana: (2) number of dead subjects (Hymenolepis nana [1]): 0
Hymenolepis nana: (3) number of subjects from which the parasite has been eradicated (Hymenolepis nana [1]): 2
Hymenolepis nana: (4) percentage of activity (Hymenolepis nana [1]): 20%
Syphacia: (2) number of dead subjects (Syphacia obvelata): 0
Syphacia: (3) number of subjects from which the parasite has been eradicated (Syphacia obvelata): 2
Syphacia: (4) percentage of activity (Syphacia obvelata): 20%

CC(=O)Oc1ccc(C(=O)Nc2ncc([N+](=O)[O-])s2)cc1 [PH 6046]
Hymenolepis nana: (2) number of dead subjects (Hymenolepis nana [1]): 0
Hymenolepis nana: (3) number of subjects from which the parasite has been eradicated (Hymenolepis nana [1]): 3
Hymenolepis nana: (4) percentage of activity (Hymenolepis nana [1]): 30%
Syphacia: (2) number of dead subjects (Syphacia obvelata): 0
Syphacia: (3) number of subjects from which the parasite has been eradicated (Syphacia obvelata): 2
Syphacia: (4) percentage of activity (Syphacia obvelata): 20%

CC(=O)Oc1cccc(C(=O)Nc2ncc([N+](=O)[O-])s2)c1 [PH 6045]
Hymenolepis nana: (2) number of dead subjects (Hymenolepis nana [1]): 0
Hymenolepis nana: (3) number of subjects from which the parasite has been eradicated (Hymenolepis nana [1]): 4
Hymenolepis nana: (4) percentage of activity (Hymenolepis nana [1]): 40%
minimal effective concentration (Biomphalaria glabrata): 10 µg/mL
Syphacia: (2) number of dead subjects (Syphacia obvelata): 0
Syphacia: (3) number of subjects from which the parasite has been eradicated (Syphacia obvelata): 0
Syphacia: (4) percentage of activity (Syphacia obvelata): 0%

COc1cc(C(=O)Nc2ncc([N+](=O)[O-])s2)cc(OC)c1OC(C)=O [PH 6059]
Hymenolepis nana: (2) number of dead subjects (Hymenolepis nana [1]): 0
Hymenolepis nana: (3) number of subjects from which the parasite has been eradicated (Hymenolepis nana [1]): 1
Hymenolepis nana: (4) percentage of activity (Hymenolepis nana [1]): 10%
minimal effective concentration (Biomphalaria glabrata): 10 µg/mL
Syphacia: (2) number of dead subjects (Syphacia obvelata): 0
Syphacia: (3) number of subjects from which the parasite has been eradicated (Syphacia obvelata): 2
Syphacia: (4) percentage of activity (Syphacia obvelata): 20%

CC(=O)Oc1ccc(Cl)cc1C(=O)Nc1ncc([N+](=O)[O-])s1 [PH 6057]
Hymenolepis nana: (2) number of dead subjects (Hymenolepis nana [1]): 0
Hymenolepis nana: (3) number of subjects from which the parasite has been eradicated (Hymenolepis nana [1]): 7
Hymenolepis nana: (4) percentage of activity (Hymenolepis nana [1]): 70%
minimal effective concentration (Biomphalaria glabrata): 1 µg/mL
Syphacia: (2) number of dead subjects (Syphacia obvelata): 0
Syphacia: (3) number of subjects from which the parasite has been eradicated (Syphacia obvelata): 2
Syphacia: (4) percentage of activity (Syphacia obvelata): 20%

COc1cc(C(=O)Nc2ncc([N+](=O)[O-])s2)ccc1OC(C)=O [PH 6196]
Hymenolepis nana: (2) number of dead subjects (Hymenolepis nana [1]): 0
Hymenolepis nana: (3) number of subjects from which the parasite has been eradicated (Hymenolepis nana [1]): 0
Hymenolepis nana: (4) percentage of activity (Hymenolepis nana [1]): 0%
Syphacia: (2) number of dead subjects (Syphacia obvelata): 0
Syphacia: (3) number of subjects from which the parasite has been eradicated (Syphacia obvelata): 0
Syphacia: (4) percentage of activity (Syphacia obvelata): 0%

CC(=O)Oc1cccc(C(=O)Nc2ncc([N+](=O)[O-])s2)c1OC(C)=O [PH 6239]
Hymenolepis nana: (2) number of dead subjects (Hymenolepis nana [1]): 0
Hymenolepis nana: (3) number of subjects from which the parasite has been eradicated (Hymenolepis nana [1]): 2
Hymenolepis nana: (4) percentage of activity (Hymenolepis nana [1]): 20%
minimal effective concentration (Biomphalaria glabrata): 10 µg/mL
Syphacia: (2) number of dead subjects (Syphacia obvelata): 0
Syphacia: (3) number of subjects from which the parasite has been eradicated (Syphacia obvelata): 1
Syphacia: (4) percentage of activity (Syphacia obvelata): 10%
